Test results from PubChem BioAssay AID248 (DTP/NCI, 2004).
Inconclusive results and toxic doses are left out. No stated cut-off is given here; in the data, active means T/C of 150% or more; inactive means T/C below 125%.

Tested on: L1210 leukemia ip in BDF1 mice, survival T/C
Assay: NCI In Vivo Anticancer Drug Screen. Data for tumor model L1210 Leukemia (intraperitoneal) in B6D2F1 (BDF1) mice
Conditions: endpoint: mean survival time, higher = longer survival
In short: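 Mice bearing the transplanted tumor received compound or vehicle. Survival of the treated group was divided by that of the vehicle-treated control group to give the ratio.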

[1] = dose: 100.0 mg/kg/injection, schedule: Q04DX003 (ip), vehicle: saline with Tween-80
[2] = dose: 100.0 mg/kg/injection, schedule: Q01DX001 (ip), vehicle: saline with Tween-80
[3] = dose: 200.0 mg/kg/injection, schedule: Q01DX001 (ip), vehicle: saline with Tween-80
[4] = dose: 400.0 mg/kg/injection, schedule: Q01DX001 (ip), vehicle: saline with Tween-80
[5] = dose: 100.0 mg/kg/injection, schedule: Q01DX001 (ip), vehicle: saline
[6] = dose: 200.0 mg/kg/injection, schedule: Q01DX001 (ip), vehicle: saline
[7] = dose: 50.0 mg/kg/injection, schedule: Q01DX001 (ip), vehicle: saline
[8] = dose: 100.0 mg/kg/injection, schedule: Q01DX001 (ip), vehicle: carboxymethylcellulose (CMC)
[9] = dose: 200.0 mg/kg/injection, schedule: Q01DX001 (ip), vehicle: carboxymethylcellulose (CMC)
[10] = dose: 200.0 mg/kg/injection, schedule: Q04DX003 (ip), vehicle: saline with Tween-80

Measured: T/C

COC(=O)Nc1ccc(C(C)=O)cc1
inactive: dose: 20.0 mg/kg/injection, schedule: Q01DX009 (ip), vehicle: saline with Tween-80 95 % of control | dose: 40.0 mg/kg/injection, schedule: Q01DX009 (ip), vehicle: saline with Tween-80 91 % of control | dose: 80.0 mg/kg/injection, schedule: Q01DX009 (ip), vehicle: saline with Tween-80 93 % of control | dose: 160.0 mg/kg/injection, schedule: Q01DX009 (ip), vehicle: saline with Tween-80 101 % of control | dose: 320.0 mg/kg/injection, schedule: Q01DX009 (ip), vehicle: saline with Tween-80 90 % of control

Clc1cccc(N=C(Oc2cccc(Cl)c2)c2ccccc2)c1
active: dose: 25.6 mg/kg/injection, schedule: Q04DX002 (ip), vehicle: saline with Tween-80 176 % of control
inactive: dose: 64.0 mg/kg/injection, schedule: Q04DX002 (ip), vehicle: saline with Tween-80 101 % of control | dose: 160.0 mg/kg/injection, schedule: Q04DX002 (ip), vehicle: saline with Tween-80 97 % of control | dose: 400.0 mg/kg/injection, schedule: Q04DX002 (ip), vehicle: saline with Tween-80 93 % of control

OC1CC2CCC(C1)N2CCCN1c2ccccc2Sc2ccc(Cl)cc21 (configuration not stated)
inactive: dose: 25.0 mg/kg/injection, schedule: Q01DX009 (ip), vehicle: saline with Tween-80 112 % of control | dose: 50.0 mg/kg/injection, schedule: Q01DX009 (ip), vehicle: saline with Tween-80 87 % of control | dose: 50.0 mg/kg/injection, schedule: Q04DX003 (ip), vehicle: saline with Tween-80 97 % of control | [1] 112 % of control | dose: 133.0 mg/kg/injection, schedule: Q04DX003 (ip), vehicle: saline with Tween-80 107 % of control

CCOC(=S)c1cccc(S(=O)(=O)Nc2ccc(OCC)cc2)c1
inactive: [2] 105 % of control | [3] 105 % of control | [4] 108 % of control

O=C(NCCCl)NC1OC(CO)C(O)C(O)C1O (configuration not stated)
inactive: [5] 107 % of control | [6] 101 % of control | dose: 400.0 mg/kg/injection, schedule: Q01DX001 (ip), vehicle: saline 96 % of control

OCC1=CCc2ccccc21
inactive: dose: 100.0 mg/kg/injection, schedule: Q04DX002 (ip), vehicle: other 93 % of control | dose: 200.0 mg/kg/injection, schedule: Q04DX002 (ip), vehicle: other 93 % of control | dose: 400.0 mg/kg/injection, schedule: Q04DX002 (ip), vehicle: other 93 % of control

CCN(CC)CCN1c2cc(C)ccc2Sc2ccc3ccccc3c21
inactive: dose: 100.0 mg/kg/injection, schedule: Q01DX001 (sc), vehicle: olive oil, sesame oil, peanut oil 101 % of control | dose: 100.0 mg/kg/injection, schedule: Q01DX009 (sc), vehicle: olive oil, sesame oil, peanut oil 101 % of control | dose: 100.0 mg/kg/injection, schedule: Q04DX003 (sc), vehicle: olive oil, sesame oil, peanut oil 110 % of control | dose: 200.0 mg/kg/injection, schedule: Q01DX001 (sc), vehicle: olive oil, sesame oil, peanut oil 100 % of control | dose: 200.0 mg/kg/injection, schedule: Q01DX009 (sc), vehicle: olive oil, sesame oil, peanut oil 118 % of control | dose: 200.0 mg/kg/injection, schedule: Q04DX003 (sc), vehicle: olive oil, sesame oil, peanut oil 110 % of control | dose: 400.0 mg/kg/injection, schedule: Q01DX001 (sc), vehicle: olive oil, sesame oil, peanut oil 101 % of control | dose: 400.0 mg/kg/injection, schedule: Q04DX003 (sc), vehicle: olive oil, sesame oil, peanut oil 113 % of control

CN(C)N=Nc1ccccc1[N+](=O)[O-]
inactive: dose: 30.0 mg/kg/injection, schedule: Q01DX009 (ip), vehicle: saline with Tween-80 99 % of control | [7] 103 % of control | dose: 53.0 mg/kg/injection, schedule: Q01DX009 (ip), vehicle: saline with Tween-80 118 % of control | dose: 60.0 mg/kg/injection, schedule: Q01DX009 (ip), vehicle: saline with Tween-80 106 % of control | [5] 101 % of control | dose: 119.0 mg/kg/injection, schedule: Q04DX003 (ip), vehicle: saline 107 % of control | dose: 120.0 mg/kg/injection, schedule: Q01DX009 (ip), vehicle: saline with Tween-80 113 % of control | dose: 178.0 mg/kg/injection, schedule: Q04DX003 (ip), vehicle: saline 118 % of control | dose: 267.0 mg/kg/injection, schedule: Q04DX003 (ip), vehicle: saline 92 % of control

CCCCCCCCCC(=O)NN=C(C)C
inactive: dose: 12.5 mg/kg/injection, schedule: Q01DX009 (ip), vehicle: Klucel (hydroxypropylcellulose) (HPC) 92 % of control | dose: 25.0 mg/kg/injection, schedule: Q01DX009 (ip), vehicle: Klucel (hydroxypropylcellulose) (HPC) 105 % of control | dose: 50.0 mg/kg/injection, schedule: Q01DX009 (ip), vehicle: Klucel (hydroxypropylcellulose) (HPC) 116 % of control

CCCCCCCCCCCCCCCCCC[N+](C)(C)c1nc(Cl)nc(Cl)n1
inactive: dose: 13.0 mg/kg/injection, schedule: Q01DX015 (ip), vehicle: carboxymethylcellulose (CMC) 98 % of control | dose: 25.0 mg/kg/injection, schedule: Q01DX015 (ip), vehicle: carboxymethylcellulose (CMC) 92 % of control | dose: 37.5 mg/kg/injection, schedule: Q04DX003 (ip), vehicle: Klucel (hydroxypropylcellulose) (HPC) 103 % of control | dose: 50.0 mg/kg/injection, schedule: Q01DX015 (ip), vehicle: carboxymethylcellulose (CMC) 93 % of control | dose: 75.0 mg/kg/injection, schedule: Q04DX003 (ip), vehicle: Klucel (hydroxypropylcellulose) (HPC) 97 % of control | [8] 92 % of control | dose: 100.0 mg/kg/injection, schedule: Q01DX015 (ip), vehicle: carboxymethylcellulose (CMC) 93 % of control | [9] 97 % of control

O=C(CC1(c2ccccc2)C(=O)c2ccccc2C1=O)c1ccccc1
inactive: [8] 94 % of control | [9] 91 % of control | dose: 400.0 mg/kg/injection, schedule: Q01DX001 (ip), vehicle: carboxymethylcellulose (CMC) 94 % of control

Cc1cc(C(C)(C)C)c(SC(=O)N(C)C)c(C(C)(C)C)c1
inactive: [1] 97 % of control | [10] 95 % of control

O=S1(=O)C=C(Cl)C2C3CC(C(Cl)C3Cl)C21 (configuration not stated)
inactive: dose: 5.0 mg/kg/injection, schedule: Q01DX009 (ip), vehicle: carboxymethylcellulose (CMC) 94 % of control | dose: 10.0 mg/kg/injection, schedule: Q01DX001 (ip), vehicle: carboxymethylcellulose (CMC) 94 % of control | dose: 10.0 mg/kg/injection, schedule: Q01DX009 (ip), vehicle: carboxymethylcellulose (CMC) 94 % of control | dose: 10.0 mg/kg/injection, schedule: Q04DX003 (ip), vehicle: carboxymethylcellulose (CMC) 92 % of control | dose: 20.0 mg/kg/injection, schedule: Q01DX001 (ip), vehicle: carboxymethylcellulose (CMC) 100 % of control | dose: 20.0 mg/kg/injection, schedule: Q01DX009 (ip), vehicle: carboxymethylcellulose (CMC) 91 % of control | dose: 20.0 mg/kg/injection, schedule: Q04DX003 (ip), vehicle: carboxymethylcellulose (CMC) 94 % of control | dose: 40.0 mg/kg/injection, schedule: Q01DX001 (ip), vehicle: carboxymethylcellulose (CMC) 103 % of control | dose: 40.0 mg/kg/injection, schedule: Q04DX003 (ip), vehicle: carboxymethylcellulose (CMC) 94 % of control

O=S(=O)(CCCCCl)Nc1ccc(NS(=O)(=O)CCCCCl)cc1
inactive: [2] 102 % of control | [1] 97 % of control | [3] 92 % of control | [10] 90 % of control | [4] 92 % of control | dose: 400.0 mg/kg/injection, schedule: Q04DX003 (ip), vehicle: saline with Tween-80 92 % of control

CC(=O)c1ccccc1OB(F)F
inactive: [7] 98 % of control | [5] 98 % of control | [6] 106 % of control

COc1ccc(C2CCC(=O)CC2C(=O)O)cc1 (configuration not stated)
inactive: dose: 100.0 mg/kg/injection, schedule: Q01DX009 (ip), vehicle: Klucel (hydroxypropylcellulose) (HPC) 92 % of control | dose: 100.0 mg/kg/injection, schedule: Q04DX003 (ip), vehicle: Klucel (hydroxypropylcellulose) (HPC) 110 % of control | dose: 200.0 mg/kg/injection, schedule: Q01DX009 (ip), vehicle: Klucel (hydroxypropylcellulose) (HPC) 97 % of control | dose: 200.0 mg/kg/injection, schedule: Q04DX003 (ip), vehicle: Klucel (hydroxypropylcellulose) (HPC) 98 % of control | dose: 400.0 mg/kg/injection, schedule: Q01DX009 (ip), vehicle: Klucel (hydroxypropylcellulose) (HPC) 103 % of control | dose: 400.0 mg/kg/injection, schedule: Q04DX003 (ip), vehicle: Klucel (hydroxypropylcellulose) (HPC) 93 % of control

O=C1c2cccc3cccc(c23)C(=O)N1CCCN1C(=O)c2cccc3cccc(c23)C1=O
inactive: dose: 100.0 mg/kg/injection, schedule: Q04DX002 (ip), vehicle: Klucel (hydroxypropylcellulose) (HPC) 88 % of control | dose: 200.0 mg/kg/injection, schedule: Q04DX002 (ip), vehicle: Klucel (hydroxypropylcellulose) (HPC) 98 % of control
